Assay results from patent US20240002429A1, “PRODRUG OF 5a-HYDROXY-6ß-[2-(1H-IMIDAZOL-4-YL)ETHYLAMINO]CHOLESTAN-3ß-OL AND PHARMACEUTICAL COMPOSITIONS COMPRISING SAME FOR USE IN THE TREATMENT OF CANCER” (priority 2020, published 2024).

Tests used:
4T1 cells [1] = test: Cytotoxicity on 4T1 cells, LDH; assay type: cell-based, murine; settings: Mus musculus, 4T1, LDH, 48 h
Procedure: (§1) The cellular viability tests were carried out on murine mammary tumor 4T1 cells characterized as negative triples (HER2−, ER−, PR−).
(§2) For this experiment, a cell culture medium was prepared. The culture medium consists of Dulbecco's Modified Eagle Medium (DMEM, marketed by Westburg under the reference LO BE12-604F), comprising 4.5 g/L glucose with L-glutamine, to which 10% of fetal calf serum (FCS) and 50 U/mL of penicillin/streptomycin are added. The 4T1 cells are introduced into this culture medium.
(§3) 96-well plates were seeded with 2000 4T1 cells per well. After 72 hours (h) of culture in normal conditions, i.e. in an incubator at a temperature of 37° C. at 5% CO2, the 4T1 cells are treated for 48 h with DX101, DX107, DX113, DX117, DX119, DX121 or DX131 at 100 nM, 1 μM, 2.5 μM and 10 μM. A control condition (CTL) is also carried out in parallel using the protocol described above but without treatment with the molecules DX101, DX107, DX113, DX117, DX119, DX121, DX131 or DX133.
(§4) For the second method, the percentage viability is determined using assay of the activity of the enzyme LDH (lactate dehydrogenase) in the cellular supernatants using the kit non radioactive cytotoxicity assay kit (Promega). LDH is an enzyme released in the supernatant of dead cells. The higher the LDH activity in the supernatant, the greater is the cell death. In this enzyme test, the LDH released converts a violet tetrazolium salt to formazan, of red color, absorbing at 490 nm. The intensity of the red color is proportional to the number of dead cells. After 48 h of treatment, the supernatants are transferred to a new 96-well plate and are incubated for 30 minutes in the presence of the substrate mix at room temperature. The reaction is stopped using the stop buffer and the absorbance is determined at 490 nm. The percentage cell death is determined here using a control 100% of maximum activity of LDH (carried out with untreated cells incubated in the presence of the lysis solution for 45 minutes at 37° C. just before adding the substrate mix), and the cellular viability in each well is then deduced from this percentage. IC50 is then determined as explained in the preceding paragraph.

4T1 cells [2] = test: Cytotoxicity on 4T1 cells, CellTox Green Cytotoxicity Assay; assay type: cell-based, murine; settings: Mus musculus, 4T1, Green Cytotoxicity Assay, 48 h
Procedure: as §1, §2, §3
For the third method, the percentage viability is determined using the kit CellTox Green Cytotoxicity Assay (Promega). This assay measures cell death via a change in membrane integrity. […] As a result, the higher the fluorescence in the wells, the greater is the cell death. After 48 h of treatment, the cells are incubated for a minimum of 15 minutes in the presence of the Celltox green reagent at room temperature and the fluorescence is read at […]. The percentage cell death is determined using the control 100% of cell death (carried out for untreated cells incubated in the presence of the lysis solution for 30 minutes at 37° C. before adding the Celltox green reagent), and the cellular viability in each well is then deduced from this percentage. IC50 is then determined as explained above.

[3] = tested on: BT-474 human mammary tumor cells; test: Cytotoxicity on BT-474 cells, MTT; assay type: cell-based; settings: BT-474, MTT, 48 h; for Mean LogIC50 (±SEM): log of IC50 in μM; for IC50: Homo sapiens, read-out: IC50
Procedure: Cellular viability is measured by three different methods. For the first method, MTT labeling is carried out at 48 hours. This test is based on the use of the tetrazolium salt MTT (3-(4,5-dimethylthiazol-2-yl)-2,5-diphenyltetrazolium bromide). The tetrazolium is reduced by mitochondrial succinate dehydrogenase of active living cells, to formazan, a precipitate of a violet color. The quantity of precipitate formed is proportional to the quantity of living cells but also to the metabolic activity of each cell. […] After 48 hours, the medium is aspirated, and the cells are incubated with MTT (0.5 mg/ml in culture medium) for about 3 hours. The MTT solution is aspirated and the violet crystals are dissolved in dimethylsulfoxide (DMSO). The OD (optical density) is measured at 550 nm. The percentage viability is then determined in each well relative to the CTL and the IC50 (concentration for which there are still 50% of living cells) is determined for each molecule with Prism software using the nonlinear regression straight line (log(inhibitor) vs. Response).
(§5) The cellular viability tests were also carried out on BT-474 human mammary tumor cells (characterized as being positive triples HER2+, ER+, PR+). The BT-474 cells are in a cell culture medium identical to the preceding example and are seeded in 24-well plates at 70 000 cells per well, for determination of cellular viability using trypan blue, or in 96-well plates at 13 000 cells per well for determination of cellular viability using the MTT or LDH assay. After 96 hours (h) of culture in normal conditions, i.e. in an incubator at a temperature of 37° C. at 5% CO2, the BT-474 cells are treated for 48 h with DX101, DX107, and DX113 at 100 nM, 1 μM, 2.5 μM and 10 μM. A control is also carried out using the protocol described above but without treatment with the molecules DX101, DX107, DX113, DX117, DX119, DX121 or DX131.
(§6) After trypsin digestion for 10 minutes at 37° C., cell survival was quantified, also by a trypan blue assay with automatic counting with the Biorad TC20 equipment (TC20™ Automated Cell Counter). The trypan blue assay is based on the cell membrane integrity, which is broken in the dead cells. Trypan blue stains the dead cells blue. The Biorad TC20 cell counter counts the proportion of blue cells and non-blue cells, relative to the cell percentages. The percentage viability is then determined in each well relative to the untreated cells and the IC50 is determined as explained in the preceding example. The percentage viability of the BT-474 cells was determined using the MTT and LDH assay, carried out as described in the preceding example.

[4] = tested on: BT-474 human mammary tumor cells; test: Cytotoxicity on BT-474 cells, LDH; assay type: cell-based; settings: BT-474, LDH, 48 h; for Mean LogIC50 (±SEM): log of IC50 in μM; for IC50: Homo sapiens, read-out: IC50
Procedure: as §4, §5, §6

[5] = tested on: BT-474 human mammary tumor cells; test: Cytotoxicity on BT-474 cells, trypan blue; assay type: cell-based; settings: BT-474, trypan blue, 48 h
Procedure: as §5, §6

[6] = Pharmacokinetic study of DX117 (LC/MS in plasma); assay type: in vivo; settings: rat, 50 mg/kg, administered compound assayed
From the text: (§7) The following study is a determination by LC/MS in plasma of the various molecules over 3 days (11 measurement points at the end). The graphs are always presented in comparison with DX101, which is the reference. […]

[7] = Pharmacokinetic study of DX121 (LC/MS in plasma); assay type: in vivo; settings: rat, oral 50 mg/kg, administered compound assayed
From the text: as §7

[8] = log of IC50 in μM, read-out: Mean LogIC50 (±SEM) (converted)

CCC(=O)O[C@H]1CC[C@]2(C)[C@H]3CC[C@]4(C)[C@@H]([C@H](C)CCCC(C)C)CC[C@H]4[C@@H]3C[C@@H](NCCc3c[nH]cn3)[C@@]2(O)C1 [DX107, 5α-hydroxy-6β-[2-(1H-imidazol-4-yl)ethylamino]cholestan-3β-yl propionate]
IC50 (4T1 cells [1]; [8]): 3.31 µM | IC50 (4T1 cells [1]; read-out: IC50): 3.29 µM | IC50 (4T1 cells [2]; [8]): 2.34 µM | IC50 (4T1 cells [2]; read-out: IC50): 2.33 µM | Mean LogIC50 (±SEM) [3]: 1.08 ± 0.04 | IC50 [3]: 11.9 µM | Mean LogIC50 (±SEM) [4]: 0.95 ± 0.08 | IC50 [4]: 8.92 µM | Mean LogIC50 (±SEM) ([5]; log of IC50 in μM): 0.66 ± 0.04 | IC50 ([5]; Homo sapiens): 4.58 µM

CC(C)CCC[C@@H](C)[C@H]1CC[C@H]2[C@@H]3C[C@@H](NCCc4c[nH]cn4)[C@@]4(O)C[C@@H](O)CC[C@]4(C)[C@H]3CC[C@]12C [DX101, 5α-hydroxy-6β-[2-(1H-imidazol-4-yl)-ethylamino]-cholestan-3β-ol, reference compound]
Concentration max [6]: 150 nM | Area under curve ([6]; 0-72 h): 3019 | Concentration max [7]: 150 nM | Area under curve ([7]; 0-72 h): 3019 | IC50 (4T1 cells [2]; [8]): 3.55 µM | IC50 (4T1 cells [2]; read-out: IC50): 3.55 µM | Mean LogIC50 (±SEM) [3]: 0.85 ± 0.02 | IC50 [3]: 7.06 µM | Mean LogIC50 (±SEM) [4]: 0.99 ± 0.06 | IC50 [4]: 9.72 µM
